# Laboratory results reported in article PMC3625376 (Journal of the American Chemical Society, 2013).
# System: blood glucose in diabetic rats
# Experiment: diabetic rat assay
# Format: in vivo
# Settings: Figure 5 panels C and D
row,Substance,activity in lowering blood glucose in diabetic rats (in words)
1,WT insulin (biosynthetic): wild type (wt) biosynthetic insulin used as positive control,fully active
2,"[Asp^B10, Lys^B28, Pro^B29]-insulin [DKP insulin (biosynthetic)]",fully active
